Results as given in PubChem BioAssay (NCI).
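GI50: concentration for 50% inhibition of growth. TGI: total growth inhibition.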

What was measured:
Test in all cases: NCI tumour cell line growth inhibition, 384-well format
[1] = test system: OVCAR-5 ovarian
[2] = test system: MDA-MB-468 breast
[3] = test system: MCF7 breast
[4] = test system: HT29 colon
[5] = test system: PC-3 prostate
[6] = test system: TK-10 renal
[7] = test system: SF-295 CNS
[8] = test system: HOP-92 NSCLC
[9] = test system: SK-MEL-5 melanoma
[10] = test system: T-47D breast
[11] = test system: OVCAR-4 ovarian
[12] = test system: COLO 205 colon
[13] = test system: HCT-15 colon
[14] = test system: SNB-19 CNS
[15] = test system: SK-OV-3 ovarian
[16] = test system: MALME-3M melanoma
[17] = test system: MOLT-4 leukemia
[18] = test system: 786-0 renal
[19] = test system: CAKI-1 renal
[20] = test system: NCI-H226 lung
[21] = test system: U251 glioblastoma
[22] = test system: SNB-75 CNS
[23] = test system: NCI-H460 NSCLC
[24] = test system: IGROV1 ovarian
[25] = test system: ACHN renal
[26] = test system: NCI-H522 lung
[27] = test system: NCI-H322M lung
[28] = test system: BT-549 breast
[29] = test system: MDA-MB-231 breast
[30] = test system: CCRF-CEM leukemia
[31] = test system: A498 renal
[32] = test system: A549 NSCLC
[33] = test system: HL-60(TB) leukemia
[34] = test system: RPMI-8226 leukemia
[35] = test system: NCI-H23 lung
[36] = test system: OVCAR-3 ovarian
[37] = test system: HOP-62 NSCLC
[38] = test system: UACC-257 melanoma
[39] = test system: EKVX NSCLC
[40] = test system: LOX IMVI melanoma
[41] = test system: SF-268 CNS
[42] = test system: OVCAR-8 ovarian
[43] = test system: SN12C renal
[44] = test system: NCI/ADR-RES ovarian
[45] = test system: K-562 leukemia
[46] = test system: RXF 393 renal
[47] = test system: DU-145 prostate
[48] = test system: SR leukemia
[49] = test system: SK-MEL-28 melanoma
[50] = test system: SW-620 colon
[51] = test system: HCT-116 colon
[52] = test system: SF-539 CNS
[53] = test system: HCC-2998 colon
[54] = test system: KM12 colon
[55] = test system: UO-31 renal
[56] = test system: M14 melanoma
[57] = test system: HS 578T breast
[58] = test system: MDA-MB-435 melanoma
[59] = test system: UACC-62 melanoma
[60] = test system: SK-MEL-2 melanoma

With `Cc1ccccc1CN1CC2=C(CCN(Cc3ccccc3)C2=O)N2CCN=C12` the GI50 [1] was 3500 nM, the TGI [1] was > 100000 nM and the GI50 [2] was 363 nM. For the same molecule, the TGI [2] was 1320 nM, the GI50 [3] was 3120 nM and the TGI [3] was > 100000 nM. For the same molecule, the GI50 [4] was 12000 nM, the TGI [4] was > 100000 nM and the GI50 [5] was 2810 nM. The TGI [5] was > 100000 nM, the GI50 [6] was 6470 nM and the TGI [6] was > 100000 nM. For the same molecule, the GI50 [7] was 700 nM, the TGI [7] was 3170 nM and the GI50 [8] was 4300 nM. For the same molecule, the TGI [8] was > 100000 nM, the GI50 [9] was 1190 nM and the TGI [9] was 2900 nM. It also gave a GI50 [10] of 2000 nM, a TGI [10] of 9660 nM and a GI50 [11] of 1080 nM. For the same molecule, the TGI [11] was 4990 nM, the GI50 [12] was 2880 nM and the TGI [12] was 14100 nM. For the same molecule, the GI50 [13] was 1780 nM, the TGI [13] was > 100000 nM and the GI50 [14] was 2980 nM. The TGI [14] was > 100000 nM, the GI50 [15] was 3440 nM and the TGI [15] was 36900 nM. It also gave a GI50 [16] of 3690 nM, a TGI [16] of 10500 nM and a GI50 [17] of 1700 nM. The TGI [17] was 3390 nM, the GI50 [18] was 4140 nM and the TGI [18] was > 100000 nM. For the same molecule, the GI50 [19] was 3970 nM, the TGI [19] was > 100000 nM and the GI50 [20] was 3420 nM. The TGI [20] was 63100 nM, the GI50 [21] was 1800 nM and the TGI [21] was 6210 nM. For the same molecule, the GI50 [22] was 2900 nM, the TGI [22] was 24900 nM and the GI50 [23] was 2610 nM. For the same molecule, the TGI [23] was 9290 nM, the GI50 [24] was 53800 nM and the TGI [24] was > 100000 nM. For the same molecule, the GI50 [25] was 6020 nM, the TGI [25] was > 100000 nM and the GI50 [26] was 2380 nM. The TGI [26] was 70900 nM, the GI50 [27] was 3340 nM and the TGI [27] was > 100000 nM. For the same molecule, the GI50 [28] was 4060 nM, the TGI [28] was 66400 nM and the GI50 [29] was 2830 nM. For the same molecule, the TGI [29] was 9620 nM, the GI50 [30] was 1040 nM and the TGI [30] was > 100000 nM. For the same molecule, the GI50 [31] was 4560 nM, the TGI [31] was > 100000 nM and the GI50 [32] was 4200 nM. For the same molecule, the TGI [32] was > 100000 nM, the GI50 [33] was 186 nM and the TGI [33] was 547 nM. For the same molecule, the GI50 [34] was 203 nM, the TGI [34] was 382 nM and the GI50 [35] was 2140 nM. It also gave a TGI [35] of 7970 nM, a GI50 [36] of 2060 nM and a TGI [36] of 5710 nM. For the same molecule, the GI50 [37] was 1360 nM, the TGI [37] was 7900 nM and the GI50 [38] was 1130 nM. For the same molecule, the TGI [38] was 3110 nM, the GI50 [39] was 3300 nM and the TGI [39] was > 100000 nM. For the same molecule, the GI50 [40] was 2090 nM, the TGI [40] was 88400 nM and the GI50 [41] was 3990 nM. For the same molecule, the TGI [41] was > 100000 nM, the GI50 [42] was 796 nM and the TGI [42] was > 100000 nM. The GI50 [43] was 3450 nM, the TGI [43] was > 100000 nM and the GI50 [44] was 1390 nM. The TGI [44] was 7800 nM, the GI50 [45] was 631 nM and the TGI [45] was > 100000 nM. The GI50 [46] was 4170 nM, the TGI [46] was 28000 nM and the GI50 [47] was 3110 nM. The TGI [47] was > 100000 nM, the GI50 [48] was 1000 nM and the TGI [48] was 2450 nM. For the same molecule, the GI50 [49] was 4550 nM, the TGI [49] was > 100000 nM and the GI50 [50] was 5690 nM. The TGI [50] was > 100000 nM, the GI50 [51] was 1900 nM and the TGI [51] was > 100000 nM. It also gave a GI50 [52] of 3540 nM, a TGI [52] of 23300 nM and a GI50 [53] of 2660 nM. The TGI [53] was 22800 nM, the GI50 [54] was 6870 nM and the TGI [54] was > 100000 nM. The GI50 [55] was 5970 nM, the TGI [55] was > 100000 nM and the GI50 [56] was 3280 nM. For the same molecule, the TGI [56] was > 100000 nM, the GI50 [57] was 2230 nM and the TGI [57] was 20200 nM.
Molecule `Nc1nc(Nc2ccc3c(c2)CC[C@@H](N2CCCC2)CC3)nn1-c1cc2c(nn1)-c1ccccc1CCC2` has a GI50 [1] of 1630 nM, a TGI [1] of 3000 nM and a GI50 [2] of 1450 nM. For the same molecule, the TGI [2] was 2760 nM, the GI50 [58] was 1020 nM and the TGI [58] was 2190 nM. It also gave a GI50 [4] of 326 nM, a TGI [4] of 1080 nM and a GI50 [5] of 796 nM. The TGI [5] was 2050 nM, the GI50 [6] was 1010 nM and the TGI [6] was 2180 nM. The GI50 [7] was 634 nM, the TGI [7] was 1940 nM and the GI50 [8] was 798 nM. The TGI [8] was 2070 nM, the GI50 [9] was 1060 nM and the TGI [9] was 2250 nM. It also gave a GI50 [10] of 1210 nM, a TGI [10] of 2450 nM and a GI50 [11] of 1480 nM. The TGI [11] was 2800 nM, the GI50 [12] was 1500 nM and the TGI [12] was 2840 nM. The GI50 [13] was 564 nM, the TGI [13] was 1800 nM and the GI50 [14] was 1590 nM. The TGI [14] was 2960 nM, the GI50 [15] was 305 nM and the TGI [15] was 1240 nM. The GI50 [16] was 284 nM, the TGI [16] was 827 nM and the GI50 [17] was 186 nM. The TGI [17] was 334 nM, the GI50 [18] was 456 nM and the TGI [18] was 1640 nM. The GI50 [19] was 493 nM, the TGI [19] was 1720 nM and the GI50 [20] was 1450 nM. For the same molecule, the TGI [20] was 2770 nM, the GI50 [21] was 761 nM and the TGI [21] was 2020 nM. The GI50 [22] was 1140 nM, the TGI [22] was 2350 nM and the GI50 [23] was 360 nM. It also gave a TGI [23] of 1280 nM, a GI50 [24] of 418 nM and a TGI [24] of 1550 nM. The GI50 [25] was 431 nM, the TGI [25] was 1510 nM and the GI50 [26] was 1270 nM. It also gave a TGI [26] of 2540 nM, a GI50 [59] of 773 nM and a TGI [59] of 2020 nM. It also gave a GI50 [27] of 529 nM, a TGI [27] of 1770 nM and a GI50 [28] of 1080 nM. It also gave a TGI [28] of 2270 nM, a GI50 [29] of 1630 nM and a TGI [29] of 3000 nM. The GI50 [31] was 327 nM, the TGI [31] was 1190 nM and the GI50 [32] was 1380 nM. It also gave a TGI [32] of 2700 nM, a GI50 [33] of 1210 nM and a TGI [33] of 2450 nM. It also gave a GI50 [35] of 1330 nM, a TGI [35] of 2610 nM and a GI50 [36] of 1150 nM. The TGI [36] was 2370 nM, the GI50 [37] was 1020 nM and the TGI [37] was 2190 nM. For the same molecule, the GI50 [38] was 182 nM, the TGI [38] was 368 nM and the GI50 [39] was 1020 nM. It also gave a TGI [39] of 2190 nM, a GI50 [41] of 1180 nM and a TGI [41] of 2410 nM. For the same molecule, the GI50 [42] was 1520 nM, the TGI [42] was 2860 nM and the GI50 [43] was 346 nM. The TGI [43] was 1680 nM, the GI50 [45] was 331 nM and the TGI [45] was 1210 nM. The GI50 [46] was 25.9 nM, the TGI [46] was 545 nM and the GI50 [47] was 939 nM. The TGI [47] was 2160 nM, the GI50 [48] was 186 nM and the TGI [48] was 328 nM. It also gave a GI50 [49] of 1400 nM, a TGI [49] of 2700 nM and a GI50 [50] of 1140 nM. The TGI [50] was 2370 nM, the GI50 [51] was 478 nM and the TGI [51] was 1730 nM. For the same molecule, the GI50 [52] was 244 nM, the TGI [52] was 1110 nM and the GI50 [54] was 1070 nM. For the same molecule, the TGI [54] was 2290 nM, the GI50 [55] was 1040 nM and the TGI [55] was 2220 nM. The GI50 [56] was 451 nM, the TGI [56] was 1590 nM and the GI50 [57] was 262 nM. It also gave a TGI [57] of 1270 nM, a GI50 [60] of 415 nM and a TGI [60] of 1400 nM.
